Experimental data from ChEMBL document CHEMBL1201862, “PubChem BioAssay data set” (2004).
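Test compounds were applied to cells in 96-well plates for 48 hours at 5 doses. GI50 is the concentration that inhibits growth by half.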 The source made the active and inactive calls. Rule as the data show it: active = GI50 up to about 1.1 µM and inactive = higher.

Experiments:
Assay in all cases: DTP human tumour cell line panel, 48 h
ACHN = system: ACHN
CCRF-CEM = system: CCRF-CEM
COLO 205 = system: COLO 205
HCT-116 = system: HCT-116
HOP-92 = system: HOP-92
LOX IMVI = system: LOX IMVI
Malme-3M = system: Malme-3M
NCI-H460 = system: NCI-H460
NCI-H522 = system: NCI-H522
OVCAR-3 = system: OVCAR-3
RPMI-8226 = system: RPMI-8226
SF-268 = system: SF-268
SF-295 = system: SF-295
SN12C = system: SN12C
SNB-19 = system: SNB-19
UACC-257 = system: UACC-257
SK-MEL-5 = system: SK-MEL-5
SNB-75 = system: SNB-75
SK-MEL-2 = system: SK-MEL-2

Measured: GI50

CC(=O)c1sc(Nc2nnc(-c3ccc(-c4nnc(Nc5nc(C)c(C(C)=O)s5)o4)cc3)o2)nc1C
inactive: ACHN > 100 µM | CCRF-CEM > 100 µM | COLO 205 > 100 µM | HCT-116 > 100 µM | HOP-92 > 100 µM | LOX IMVI > 100 µM | Malme-3M > 100 µM | NCI-H460 > 100 µM | NCI-H522 > 10 µM | OVCAR-3 > 100 µM | RPMI-8226 > 100 µM | SF-268 > 100 µM | SF-295 > 100 µM | SN12C > 100 µM | SNB-19 > 100 µM | UACC-257 > 100 µM

COc1ccc(-c2cc(O)c3cc(Cl)ccc3n2)cc1
inactive: ACHN > 100 µM | CCRF-CEM > 100 µM | COLO 205 > 100 µM | HCT-116 > 100 µM | HOP-92 > 100 µM | LOX IMVI > 100 µM | Malme-3M > 100 µM | NCI-H460 > 100 µM | NCI-H522 > 100 µM | OVCAR-3 > 100 µM | RPMI-8226 > 100 µM | SF-268 > 100 µM | SF-295 > 100 µM | SK-MEL-5 > 100 µM | SN12C > 100 µM | SNB-19 > 100 µM | SNB-75 > 100 µM | UACC-257 > 100 µM

COc1ccc(/C(Cl)=C(\C=O)c2ccc(Cl)cc2)cc1
inactive: ACHN 3.27 µM | CCRF-CEM 2.94 µM | HCT-116 4.02 µM | LOX IMVI 3.45 µM | Malme-3M 23.3 µM | NCI-H460 3.81 µM | NCI-H522 2.19 µM | OVCAR-3 4.68 µM | SF-268 6.11 µM | SF-295 4.4 µM | SK-MEL-2 3.82 µM | SK-MEL-5 11.2 µM | SN12C 3.08 µM | SNB-19 7.01 µM | SNB-75 4.27 µM | UACC-257 11 µM

[O-]/N=[N+](/[O-])C1CCCCC1=[N+]1CCOCC1 (configuration not stated)
inactive: ACHN > 100 µM | CCRF-CEM > 100 µM | COLO 205 > 100 µM | HCT-116 > 100 µM | HOP-92 > 100 µM | Malme-3M > 100 µM | NCI-H460 > 100 µM | NCI-H522 > 100 µM | OVCAR-3 > 100 µM | RPMI-8226 > 100 µM | SF-268 > 100 µM | SF-295 > 100 µM | SK-MEL-2 > 100 µM | SN12C > 100 µM | SNB-19 > 100 µM | UACC-257 > 100 µM

Cc1ccc(NCC2(/N=C/c3ccccc3)OC(CO)C(O)C2O)cc1 (configuration not stated)
inactive: ACHN 74.3 µM | CCRF-CEM 31.6 µM | COLO 205 42.2 µM | HCT-116 36.6 µM | HOP-92 64 µM | Malme-3M 37.2 µM | NCI-H460 32.7 µM | NCI-H522 37.5 µM | OVCAR-3 41.7 µM | RPMI-8226 35 µM | SF-268 81.1 µM | SF-295 24.3 µM | SK-MEL-2 31 µM | SK-MEL-5 23.3 µM | SNB-19 > 100 µM | SNB-75 26.2 µM | UACC-257 > 100 µM

NCCCCNCCCNC(=O)c1nc(-c2csc(CCN)n2)sc1Cl
inactive: ACHN > 100 µM | CCRF-CEM > 100 µM | COLO 205 > 100 µM | HCT-116 > 100 µM | HOP-92 > 100 µM | Malme-3M > 100 µM | NCI-H460 > 100 µM | NCI-H522 > 100 µM | OVCAR-3 > 100 µM | RPMI-8226 > 100 µM | SF-268 62.7 µM | SF-295 > 100 µM | SK-MEL-2 > 100 µM | SK-MEL-5 > 100 µM | SN12C > 100 µM | SNB-19 > 100 µM | SNB-75 > 100 µM | UACC-257 > 100 µM

CC1=C(O)C(=O)c2cn(C)cc2C1=O
inactive: ACHN > 100 µM | CCRF-CEM > 100 µM | COLO 205 > 100 µM | HCT-116 > 100 µM | HOP-92 > 100 µM | LOX IMVI > 100 µM | Malme-3M > 100 µM | NCI-H460 > 100 µM | OVCAR-3 > 100 µM | RPMI-8226 > 100 µM | SF-268 > 100 µM | SF-295 > 100 µM | SK-MEL-2 > 100 µM | SK-MEL-5 > 100 µM | SN12C > 100 µM | SNB-19 > 100 µM | SNB-75 > 100 µM | UACC-257 > 100 µM

CNc1ccc2ncccc2c1[N+](=O)[O-]
inactive: ACHN > 100 µM | CCRF-CEM > 100 µM | HCT-116 > 100 µM | HOP-92 > 100 µM | LOX IMVI > 100 µM | Malme-3M > 100 µM | NCI-H460 > 100 µM | OVCAR-3 > 100 µM | RPMI-8226 > 100 µM | SF-268 > 100 µM | SF-295 > 100 µM | SK-MEL-2 > 100 µM | SK-MEL-5 > 100 µM | SN12C > 100 µM | SNB-19 > 100 µM | SNB-75 > 100 µM | UACC-257 > 100 µM

Nc1ccn(CC(CO)CC(c2ccccc2)P(=O)(O)O)c(=O)n1 (configuration not stated)
inactive: ACHN > 100 µM | CCRF-CEM > 100 µM | COLO 205 > 100 µM | HCT-116 > 100 µM | HOP-92 > 100 µM | LOX IMVI > 100 µM | Malme-3M > 100 µM | NCI-H460 > 100 µM | NCI-H522 > 100 µM | OVCAR-3 > 100 µM | RPMI-8226 > 100 µM | SF-268 > 100 µM | SF-295 > 100 µM | SK-MEL-2 > 100 µM | SK-MEL-5 > 100 µM | SN12C > 100 µM | SNB-19 > 100 µM | UACC-257 > 100 µM

CCOC(=O)C(=O)Nc1c(CC)cccc1C(C)C
inactive: ACHN > 100 µM | COLO 205 > 100 µM | HCT-116 > 100 µM | HOP-92 > 100 µM | LOX IMVI > 100 µM | Malme-3M > 100 µM | NCI-H460 > 100 µM | OVCAR-3 > 100 µM | RPMI-8226 > 100 µM | SF-268 > 100 µM | SF-295 > 100 µM | SK-MEL-2 > 100 µM | SN12C > 100 µM | SNB-19 > 100 µM | SNB-75 > 100 µM | UACC-257 > 100 µM

COC(=O)/C(C=O)=C/Sc1ccccc1
inactive: ACHN 26.4 µM | CCRF-CEM 57.5 µM | COLO 205 20 µM | HCT-116 22.5 µM | HOP-92 52.6 µM | LOX IMVI 8.65 µM | NCI-H460 32.1 µM | NCI-H522 11.7 µM | OVCAR-3 21.3 µM | RPMI-8226 65.5 µM | SF-268 11 µM | SF-295 30.1 µM | SK-MEL-2 30.9 µM | SK-MEL-5 14.2 µM | SN12C 19.7 µM | SNB-19 54.5 µM | SNB-75 18.5 µM | UACC-257 29.8 µM

CC1=CC2CC(C)C1(C)CCc1ccoc12 (configuration not stated)
inactive: ACHN > 100 µM | CCRF-CEM > 100 µM | COLO 205 > 100 µM | HCT-116 > 100 µM | HOP-92 > 100 µM | LOX IMVI > 100 µM | Malme-3M > 100 µM | NCI-H460 > 100 µM | OVCAR-3 > 100 µM | RPMI-8226 > 100 µM | SF-268 > 100 µM | SF-295 > 100 µM | SK-MEL-2 > 100 µM | SK-MEL-5 > 100 µM | SN12C > 100 µM | SNB-19 > 100 µM | SNB-75 > 100 µM | UACC-257 > 100 µM

O=C(CCc1nnc2s/c(=C\c3ccccc3Cl)c(=O)n12)Nc1cc(Cl)ccc1Cl
inactive: ACHN > 100 µM | CCRF-CEM > 100 µM | HCT-116 > 100 µM | HOP-92 > 100 µM | LOX IMVI > 100 µM | Malme-3M > 100 µM | NCI-H460 > 100 µM | NCI-H522 > 100 µM | OVCAR-3 > 100 µM | RPMI-8226 > 100 µM | SF-268 > 100 µM | SF-295 > 100 µM | SK-MEL-2 > 100 µM | SK-MEL-5 > 100 µM | SN12C > 100 µM | SNB-19 > 100 µM | UACC-257 > 100 µM

CCN(CC)CCOC(NC(C)=O)(c1ccccc1)c1ccccc1
inactive: ACHN > 100 µM | CCRF-CEM > 100 µM | COLO 205 > 100 µM | HCT-116 > 100 µM | HOP-92 > 100 µM | Malme-3M > 100 µM | NCI-H460 > 100 µM | RPMI-8226 > 100 µM | SF-268 > 100 µM | SF-295 > 100 µM | SK-MEL-5 > 100 µM | SN12C > 100 µM | SNB-19 > 100 µM | SNB-75 > 100 µM | UACC-257 > 100 µM

CC(C)OP(=O)(OC(C)C)C1=NN(c2ccc([N+](=O)[O-])cc2)C(P(=O)(OC(C)C)OC(C)C)=NN1c1ccc([N+](=O)[O-])cc1
inactive: ACHN > 100 µM | CCRF-CEM 91.4 µM | COLO 205 > 100 µM | HCT-116 7.6 µM | HOP-92 7.62 µM | LOX IMVI > 100 µM | Malme-3M 72.1 µM | NCI-H460 29.2 µM | NCI-H522 46 µM | OVCAR-3 > 100 µM | RPMI-8226 5.62 µM | SF-268 > 100 µM | SK-MEL-2 > 100 µM | SK-MEL-5 24.5 µM | SN12C 44.7 µM | SNB-19 > 100 µM

COC(=O)C1=C(C[S+]([O-])c2ccccc2[N+](=O)[O-])ON(C)C1c1ccccc1 (configuration not stated)
inactive: ACHN 31.2 µM | CCRF-CEM 10.5 µM | COLO 205 43.7 µM | HCT-116 25.5 µM | LOX IMVI 13.3 µM | Malme-3M > 100 µM | NCI-H460 > 100 µM | NCI-H522 18.4 µM | OVCAR-3 40.5 µM | RPMI-8226 34 µM | SF-268 27.5 µM | SF-295 65.8 µM | SK-MEL-2 62.1 µM | SK-MEL-5 38.8 µM | SN12C 19 µM | SNB-19 > 100 µM | SNB-75 24.8 µM | UACC-257 35.2 µM
